According to PMC6960228, “Ethoxysanguinarine, a Novel Direct Activator of AMP-Activated Protein Kinase, Induces Autophagy and Exhibits Therapeutic Potential in Breast Cancer Cells” (Frontiers in Pharmacology, 2020):

Tests used:
[1] = Body weight of xenografted mice; assay type: in vivo, nude mice; conditions: i.p. 2 mg/kg four times a week for 4 weeks
Experimental: Female nude immunodeficient mice (nu/nu) (weighing ~16 g, 5-week-old) were purchased from Hunan SJA Laboratory Animal Co., Ltd. (Changsha, China), and maintained under specific pathogen-free conditions. Mice were given free access to sterile water and to a standard diet, and maintained under controlled conditions of temperature (22–24°C), humidity (40–70%), and light (12 h light-dark cycles). The present study was approved by Animal Ethics Committee of Hubei University of Medicine. The mice were subcutaneously injected with human BC MDA-MB-231 cells (5 × 10^6 cells which were suspended in 100 μL DMEM) into the right flank of each mouse. Treatments started when tumors reached a palpable size (0.5 cm in diameter). Mice were randomly divided into the following two groups: control group (vehicle; 0.8% DMSO, 12% cremophor, and 8% ethanol in normal saline; n = 8) and Eth-treated group (intraperitoneal injection of […] Eth; n = 8). The mice were treated 5 times per week for a total of […]. Caliper measurements of the longest perpendicular tumor diameters were performed twice a week to estimate the tumor volume, using the following formula: 4π/3 × (width/2)^2 × (length/2), representing the three-dimensional volume of an ellipse. Animals were sacrificed when tumors reached 1.5 cm or if the mice appeared moribund to prevent unnecessary morbidity to the mice. […]

[2] = system: AMPK/mTORC1 signaling in MCF-7, MDA-MB-231, and MDA-MB-436 cells; test: Western blot of AMPK/mTORC1 signaling; assay type: cell-based, human; conditions: western blot
Experimental: Cells were lysed in radioimmunoprecipitation assay buffer containing 50 mM Tris, pH 8.0, 150 mM NaCl, 0.1% SDS, 0.5% sodium deoxycholate, 1% NP-40, 1 mM DTT, 1 mM NaF, 1 mM sodium orthovanadate, 1 mM phenylmethylsulfonyl fluoride (PMSF; Sigma-Aldrich; Merck KGaA), and 1% protease inhibitors cocktail (EMD Millipore, Billerica, MA, USA). Protein concentration was determined using the Bradford method. Equal amounts of sample (25 µg) were separated by SDS-PAGE (8–12% gels). Electrophoresed proteins were then transferred onto polyvinylidene fluoride membranes (EMD Millipore, Billerica, MA, USA). The membranes were blocked with 5% skimmed milk in Tris-buffered saline at room temperature for 1 h. Following blocking, membranes were incubated overnight at 4°C with primary antibodies and then rinsed with Tris-buffered saline with Tween 20. The following primary antibodies were used: anti-Glut3 (1:500; catalog no. sc-74399) (Santa Cruz Biotechnology, Inc., Dallas, TX, USA); anti-LC3 (1:1000; catalog no. 12741), anti-AMPKα (1:1000; catalog no. 2532), anti-phospho-AMPKα (Thr172) (1:1000; catalog no. 2535), anti-phospho-AMPKβ1 (Ser108) (1:1000; catalog no. 4181), anti-AMPKγ1 (1:1000; catalog no. 4187), anti-mTOR (1:1000; catalog no. 2983), anti-phospho-mTOR (Ser2448) (1:1000; catalog no. 5536), anti-P70S6K (1:1000; catalog no. 9202), anti-phospho-P70S6K (Thr389) (1:1000; catalog no. 92775), anti-4E-BP1 (1:1000; catalog no. 9234), anti-phospho-4E-BP1 (Thr37/46) (1:1000; catalog no. 2855), anti-ACC (1:1000; catalog no. 3676), anti-phospho-ACC ([…]) (1:1000; catalog no. 11818), anti-Glut1 (1:1000; catalog no. 12939), anti-Glut4 (1:1000; catalog no. 2213) (All Cell Signaling Technology, Inc., Danvers, MA, USA), and anti-GAPDH (1:5000; catalog no. M20006; Abmart, Shanghai, China). Membranes were then washed, and incubated with horseradish peroxidase-conjugated secondary antibody (1:10000; E030120-01 and E030110-01; EarthOx, LLC, San Francisco, CA, USA) for 1.5 h at room temperature. The protein bands were visualized using SuperSignal® West Pico PLUS Chemiluminescent substrate (catalog no. 34579; Pierce; Thermo Fisher Scientific, Inc., Rockford, IL, USA) ([Zhang et al., 2018]).
Figure 3 Eth induces autophagy through the AMPK/mTORC1 signaling. (A): MCF-7, MDA-MB-231, or MDA-MB-436 cells were treated with increasing concentrations of Eth for 24 h. Western blot was performed using antibodies indicated. […] (D): MDA-MB-231 or MDA-MB-436 cells transfected with pQCXIP-GFP-LC3 plasmid were treated with Eth (2.0 µM) and/or CC (25 µM) for 24 h, and assessed by immunoﬂuorescence analyses. […] (G): MDA-MB-231 or MDA-MB-436 cells transfected with pQCXIP-GFP-LC3 plasmid were treated with Eth (1.0 µM or 1.6 µM) and/or Met (10 mM) for 24 h, and assessed by immunoﬂuorescence analyses. […]

CCOC1c2c(ccc3c2OCO3)-c2ccc3cc4c(cc3c2N1C)OCO4 (stereo not drawn) [Eth, Ethoxysanguinarine]
body weight of the mice [1]: did not significantly reduce the body weight | phosphorylation of mTORC1 effectors (mTOR, p70S6K, and 4EBP1) [2]: decreased the phosphorylation of mTORC1 effectors | phosphorylation of AMPKα at Thr172 ([2]; dose- and time-dependent): increased
